Source: patent publication US10844044B2 (Vanderbilt University, priority 2018, dated 2020)
Like-named read-outs stand apart in the source and are kept apart here.

Assays:
[1] = tested on: MV4:11 human cancer cell lines; assay: Anti-proliferative activity, CellTiter-Glo viability assay, 7 day protocol; type: cell-based; conditions: Homo sapiens, MV4-11, 168 h, MV4:11 cells, 7 day incubation, read-out: GI50 on cellular proliferation of MV4:11 human cancer cell lines
Procedure, shortened: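 MV4:11 cells seeded at 3600 cells/ml and exposed to compounds for 7 days, 0.1% DMSO final. Viability measured by CellTiter-Glo luminescence. GI50 from three biological replicates, each in technical triplicate, given as mean ± S.E.M.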

WDR5 = WDR5 (Homo sapiens (Human), UniProt P61964); assay: TR-FRET binding assay (displacement of 10mer-Thr-FAM probe from WDR5)
[2] = read-out: Ki for Inhibition of WDR5 by TR-FRET assay, TR-FRET, 10mer-Thr-FAM probe, WDR5-His tag 2 nM, pH 7.0

Structure (SMILES): Cn1ccn(Cc2cc(C(=O)N[C@H](c3ccc(F)c(F)c3)C3CC3)cc(-c3cccnc3C(F)(F)F)c2)c1=N [Example 189, (S)—N-(Cyclopropyl(3,4-difluorophenyl)methyl)-3-((2-imino-3-methyl-2,3-dihydro-1H-imidazol-1-yl)methyl)-5-(2-(trifluoromethyl)pyridin-3-yl)benzamide]
- GI50 [1]: 120 nM
- Ki (WDR5; [2]): < 0.1 nM

Structure (SMILES): CCn1cc(-c2cc(Cn3ccn(C4CC4)c3=N)cc(C(=O)N[C@H](c3ccc(F)c(F)c3)C3CC3)c2)c(C(F)(F)F)n1 [Example 190, (S)—N-(Cyclopropyl(3,4-difluorophenyl)methyl)-3-((3-cyclopropyl-2-imino-2,3-dihydro-1H-imidazol-1-yl)methyl)-5-(1-ethyl-3-(trifluoromethyl)-1H-pyrazol-4-yl)benzamide]
- GI50 [1]: 190 nM
- Ki (WDR5; [2]): 0.11 nM

Structure (SMILES): CCn1cc(-c2cc(Cn3ccn(C)c3=N)cc(C(=O)N[C@H](c3ccc(F)c(F)c3)C3CC3)c2)c(C(F)(F)F)n1 [Example 191]
- GI50 [1]: 80 nM
- Ki (WDR5; [2]): < 0.1 nM

Structure (SMILES): C=C(c1cc(Cn2ccn(C)c2=N)cc(C(=O)N[C@H](c2ccc(F)c(C)c2)C2CC2)c1)C(F)(F)F [Example 192, (S)—N-(cyclopropyl(4-fluoro-3-methylphenyl)methyl)-3-((2-imino-3-methyl-2,3-dihydro-1H-imidazol-1-yl)methyl)-5-(3,3,3-trifluoroprop-1-en-2-yl)benzamide]
- GI50 [1]: 500 nM
- Ki (WDR5; [2]): < 0.1 nM

Structure (SMILES): Cc1cc([C@@H](NC(=O)c2cc(Cn3ccn(C)c3=N)cc(-c3cn(C(C)C)nc3C(F)(F)F)c2)C2CC2)ccc1F [Example 193, (S)—N-(Cyclopropyl(4-fluoro-3-methylphenyl)methyl)-3-((2-imino-3-methyl-2,3-dihydro-1H-imidazol-1-yl)methyl)-5-(1-isopropyl-3-(trifluoromethyl)-1H-pyrazol-4-yl)benzamide]
- GI50 [1]: < 100 nM
- Ki (WDR5; [2]): < 0.1 nM

Structure (SMILES): Cc1cc([C@@H](NC(=O)c2cc(Cn3ccn(C4CC4)c3=N)cc(-c3cn(C(C)C)nc3C(F)(F)F)c2)C2CC2)ccc1F [Example 194, (S)—N-(Cyclopropyl(4-fluoro-3-methylphenyl)methyl)-3-((3-cyclopropyl-2-imino-2,3-dihydro-1H-imidazol-1-yl)methyl)-5-(1-isopropyl-3-(trifluoromethyl)-1H-pyrazol-4-yl)benzamide]
- GI50 [1]: < 100 nM
- Ki (WDR5; [2]): < 0.1 nM

Structure (SMILES): Cc1cc([C@@H](NC(=O)c2cc(Cn3ccn(C)c3=N)cc(C(C)C(F)(F)F)c2)C2CC2)ccc1F (stereo partly drawn) [Example 195, N—((S)-Cyclopropyl(4-fluoro-3-methylphenyl)methyl)-3-((2-imino-3-methyl-2,3-dihydro-1H-imidazol-1-yl)methyl)-5-(1,1,1-trifluoropropan-2-yl)benzamide]
- GI50 [1]: 940 nM
- Ki (WDR5; [2]): < 0.1 nM

Structure (SMILES): Cc1cc([C@@H](NC(=O)c2cc(Cn3ccn(C)c3=N)cc(-c3cc(C(F)(F)F)nn3C)c2)C2CC2)ccc1F [Example 196, (S)—N-(Cyclopropyl(4-fluoro-3-methylphenyl)methyl)-3-((2-imino-3-methyl-2,3-dihydro-1H-imidazol-1-yl)methyl)-5-(1-methyl-3-(trifluoromethyl)-1H-pyrazol-5-yl)benzamide]
- GI50 [1]: < 100 nM
- Ki (WDR5; [2]): < 0.1 nM

Structure (SMILES): CCn1cc(-c2cc(Cn3ccn(C)c3=N)cc(C(=O)NCc3ccc(F)c(C)c3)c2)c(C(F)(F)F)n1 [Example 198, 3-(1-Ethyl-3-(trifluoromethyl)-1H-pyrazol-4-yl)-N-(4-fluoro-3-methylbenzyl)-5-((2-imino-3-methyl-2,3-dihydro-1H-imidazol-1-yl)methyl)benzamide]
- GI50 [1]: < 100 nM
- Ki (WDR5; [2]): < 0.1 nM

Structure (SMILES): CCn1cc(-c2cc(Cn3ccn(C4CC4)c3=N)cc(C(=O)NCc3ccc(=O)n(C)c3)c2)c(C(F)(F)F)n1 [Example 199, 3-((3-Cyclopropyl-2-imino-2,3-dihydro-1H-imidazol-1-yl)methyl)-5-(1-ethyl-3-(trifluoromethyl)-1H-pyrazol-4-yl)-N-((1-methyl-6-oxo-1,6-dihydropyridin-3-yl)methyl)benzamide]
- GI50 [1]: 940 nM
- Ki (WDR5; [2]): 0.3 nM

Structure (SMILES): CCn1cc(-c2cc(Cn3ccn(C)c3=N)cc(C(=O)NCc3ccc(=O)n(C)c3)c2)c(C(F)(F)F)n1 [Example 200, 3-(1-Ethyl-3-(trifluoromethyl)-1H-pyrazol-4-yl)-5-((2-imino-3-methyl-2,3-dihydro-1H-imidazol-1-yl)methyl)-N-((1-methyl-6-oxo-1,6-dihydropyridin-3-yl)methyl)benzamide]
- GI50 [1]: 710 nM
- Ki (WDR5; [2]): 0.15 nM

Structure (SMILES): Cc1cc([C@@H](NC(=O)c2cc(Cn3ccn(C)c3=N)cc(-c3ccccc3C)c2)C2CC2)ccc1F [Example 201, (S)—N-(Cyclopropyl(4-fluoro-3-methylphenyl)methyl)-5-((2-imino-3-methyl-2,3-dihydro-1H-imidazol-1-yl)methyl)-2′-methyl-[1,1′-biphenyl]-3-carboxamide]
- GI50 [1]: 140 nM
- Ki (WDR5; [2]): < 0.1 nM

Structure (SMILES): CCn1cc(-c2cc(Cn3ccn(C4CC4)c3=N)cc(C(=O)N[C@H](c3ccc(F)c(Cl)c3)C3CC3)c2)c(C(F)(F)F)n1 [Example 202, (S)—N-((3-Chloro-4-fluorophenyl)(cyclopropyl)methyl)-3-((3-cyclopropyl-2-imino-2,3-dihydro-1H-imidazol-1-yl)methyl)-5-(1-ethyl-3-(trifluoromethyl)-1H-pyrazol-4-yl)benzamide]
- GI50 [1]: < 100 nM
- Ki (WDR5; [2]): < 0.1 nM

Structure (SMILES): Cc1cc([C@@H](NC(=O)c2cc(CN3CCN(C)C3=N)cc(-c3cn(C)nc3C(F)(F)F)c2)C2CC2)ccc1F [Example 203, (S)—N-(cyclopropyl(4-fluoro-3-methylphenyl)methyl)-3-((2-imino-3-methylimidazolidin-1-yl)methyl)-5-(1-methyl-3-(trifluoromethyl)-1H-pyrazol-4-yl)benzamide]
- GI50 [1]: < 100 nM
- Ki (WDR5; read-out: Ki for Inhibition of WDR5 by TR-FRET assay): < 0.1 nM

Structure (SMILES): Cc1cc([C@@H](NC(=O)c2cc(Cn3ccn(C4CC4)c3=N)cc(-c3cn(C)nc3C(F)(F)F)c2)C2CC2)ncc1F [Example 204, (S)—N-(Cyclopropyl(5-fluoro-4-methypyridin-2-yl)methyl)-3-((3-cyclopropyl-2-imino-2,3-dihydro-1H-imidazol-1-yl)methyl)-5-(1-methyl-3-(trifluoromethyl)-1H-pyrazol-4-yl)benzamide]
- GI50 [1]: < 100 nM
- Ki (WDR5; [2]): < 0.1 nM

Structure (SMILES): Cc1cc([C@@H](NC(=O)c2cc(Cn3ccn(C)c3=N)cc(-c3cn(C)nc3C(F)(F)F)c2)C2CC2)ncc1F [Example 205, (S)—N-(Cyclopropyl(5-fluoro-4-methylpyridin-2-yl)methyl)-3-((2-imino-3-methyl-2,3-dihydro-1H-imidazol-1-yl)methyl)-5-(1-methyl-3-(trifluoromethyl)-1H-pyrazol-4-yl)benzamide]
- GI50 [1]: < 100 nM
- Ki (WDR5; [2]): < 0.1 nM

Structure (SMILES): COc1cc([C@@H](NC(=O)c2cc(Cn3ccn(C)c3=N)cc(-c3cn(C)nc3C(F)(F)F)c2)C2CC2)ccc1F [Example 207]
- GI50 [1]: < 100 nM
- Ki (WDR5; [2]): < 0.1 nM

Structure (SMILES): CCOc1c(C(=O)N[C@@H](C)c2ccc(F)c(C)c2)cc(Cn2ccn(C)c2=N)cc1-c1cn(C)nc1C(F)(F)F [Example 209, (S)-2-Ethoxy-N-(1-(4-fluoro-3-methylphenyl)ethyl)-5-((2-imino-3-methyl-2,3-dihydro-1H-imidazol-1-yl)methyl)-3-(1-methyl-3-(trifluoromethyl)-1H-pyrazol-4-yl)benzamide]
- GI50 [1]: < 100 nM
- Ki (WDR5; [2]): < 0.1 nM

Structure (SMILES): CCOc1c(C(=O)N[C@H](c2ccc(F)c(C)c2)C2CC2)cc(Cn2ccn(C)c2=N)cc1-c1cn(C)nc1C(F)(F)F [Example 210, (S)—N-(Cyclopropyl(4-fluoro-3-methylphenyl)methyl)-2-ethoxy-5-((2-iminio-3-methyl-2,3-dihydro-1H-imidazol-1-yl)methyl)-3-(1-methyl-3-(trifluoromethyl)-1H-pyrazol-4-yl)benzamide]
- GI50 [1]: < 100 nM
- Ki (WDR5; [2]): < 0.1 nM

Structure (SMILES): Cn1cc(-c2cc(Cn3ccn(C)c3=N)cc(C(=O)N[C@H](c3ccc(Cl)c(Cl)c3)C3CC3)c2)c(C(F)(F)F)n1 [Example 211]
- GI50 [1]: < 100 nM
- Ki (WDR5; [2]): < 0.1 nM

Structure (SMILES): CCn1cc(-c2cc(CN3CCN(C)C3=N)cc(C(=O)N[C@H](c3ccc(F)c(C)c3)C3CC3)c2)c(C(F)(F)F)n1 [Example 212, (S)—N-(Cyclopropyl(4-fluoro-3-methylphenyl)methyl)-3-(1-ethyl-3-(trifluoromethyl)-1H-pyrazol-4-yl)-5-((2-imino-3-methylimidazolidin-1-yl)methyl)benzamide]
- GI50 [1]: < 100 nM
- Ki (WDR5): < 0.1 nM

Structure (SMILES): CCn1cc(-c2cc(CN3CCN(C)C3=N)cc(C(=O)N[C@H](c3ccc(F)c(F)c3)C3CC3)c2)c(C(F)(F)F)n1 [Example 213, (S)—N-(Cyclopropyl(3,4-difluorophenyl)methyl)-3-(1-ethyl-3-(trifluoromethyl)-1H-pyrazol-4-yl)-5-((2-imino-3-methylimidazolidin-1-yl)methyl)benzamide]
- GI50 [1]: < 100 nM
- Ki (WDR5): < 0.1 nM

Structure (SMILES): CCn1cc(-c2cc(CN3CCN(C)C3=N)cc(C(=O)N[C@H](c3ccc(F)c(Cl)c3)C3CC3)c2)c(C(F)(F)F)n1 [Example 214, (S)—N-((3-Chloro-4-fluorophenyl)(cyclopropyl)methyl)-3-(1-ethyl-3-(trifluoromethyl)-1H pyrazol-4-yl)-5-((2-imino-3-methylimidazolidin-1-yl)methyl)benzamide]
- GI50 [1]: < 100 nM
- Ki (WDR5): < 0.1 nM

Structure (SMILES): Cc1cc([C@@H](NC(=O)c2cc(CN3CCN(C)C3=N)cc(-c3cn(C(C)C)nc3C(F)(F)F)c2)C2CC2)ccc1F [Example 215, (S)—N-(Cyclopropyl(4-fluoro-3-methylphenyl)methyl)-3-((2-imino-3-methylimidazolidin-1-yl)methyl)-5-(1-isopropyl-3-(trifluoromethyl)-1H-pyrazol-4-yl)benzamide]
- GI50 [1]: < 100 nM
- Ki (WDR5): < 0.1 nM
